Measurements reported in ChEMBL document CHEMBL1148380, “Quantitative structure-activity relationships for gammadelta T cell activation by bisphosphonates” (J Med Chem, 2004).

Experiments:
Format in all cases: functional, cell-based
Conditions in all cases: Homo sapiens, T-cell
[1] = Inhibitory activity, for stimulation of TNF-alpha release in gamma-delta T cells, using individual observed maximum TNF-alpha release
[2] = Inhibitory activity, for stimulation of TNF-alpha release in gamma-delta T cells, using a constrained maximum TNF-alpha release of 2700 pg/mL
[3] = pIC50 value for stimulation of TNF-alpha release in gamma-delta T cells, using a constrained maximum TNF-alpha release of 2700 pg/mL
[4] = pIC50 value for stimulation of TNF-alpha release in gamma-delta T cells, using individual observed maximum TNF-alpha release

Compound	IC50 [1] [µM]	IC50 [2] [µM]	IC50 [3] [µM]	IC50 [4] [µM]
CN(CCCc1ccccc1)CCC(O)(P(=O)(O)O)P(=O)(O)O	63	121	120	63.1
O=P(O)(O)C(O)(Cc1c[nH]cn1)P(=O)(O)O	7.8	12	12	7.76
O=P(O)(O)C(O)(Cc1ccccc1)P(=O)(O)O	395	2820	2820	398
CC(CCCCc1ccccc1)CCC(O)(P(=O)(O)O)P(=O)(O)O (stereo not drawn)	9.9	16	16.2	10
CC(C)CCNC(P(=O)(O)O)P(=O)(O)O [(ISOPENTYLAMINO)METHYLENEDIPHOSPHONIC ACID]	40	47	46.8	39.8
CCN(CC)C(P(=O)(O)O)P(=O)(O)O [(DIETHYLAMINO)METHYLENEDIPHOSPHONIC ACID]	132	2910	2880	132
CN(C)CCC(O)(P(=O)(O)O)P(=O)(O)O [OLPADRONIC ACID]	46	112	112	46.8
O=P(O)(O)C(O)(CCc1cccnc1)P(=O)(O)O	228	917	912	229
O=P(O)(O)C(NCc1ccc(F)cc1)P(=O)(O)O		63	63.1	
CC(C)(C)c1cccc(NC(P(=O)(O)O)P(=O)(O)O)c1		25200	25100	
CCCCCN(C)CCC(O)(P(=O)(O)O)P(=O)(O)O [IBANDRONIC ACID]	31	31	30.9	31.6
O=P(O)(O)C(N1CCCCCCC1)P(=O)(O)O [N-(HEPTAMETHYLENEIMINO)METHYLENEBISPHOSPHONIC ACID]		68	67.6	
CCCCNC(P(=O)(O)O)P(=O)(O)O [(BUTYLAMINO)METHYLENEDIPHOSPHONIC ACID]	10	13	12.9	10.2
CC1CCCCN1C(P(=O)(O)O)P(=O)(O)O (stereo not drawn)		2740	2750	
CC(N)CC(O)(P(=O)(O)O)P(=O)(O)O (stereo not drawn)	63	110	110	63.1
CCCCCC(O)(P(=O)(O)O)P(=O)(O)O	90	1610	1620	91.2

Compound	IC50 [1] [µM]	IC50 [2] [µM]	IC50 [3] [µM]	IC50 [4] [µM]
O=P(O)(O)C(O)(Cc1ccncc1)P(=O)(O)O	22	21	20.9	21.4
O=P(O)(O)C(CNc1ccncc1)P(=O)(O)O	9.9	16	16.2	10
O=P(O)(O)C(NC1CCCC1)P(=O)(O)O [(CYCLOPENTYLAMINO)METHYLENEDIPHOSPHONIC ACID]	25	55	55	25.1
NCCC(O)(P(=O)(O)O)P(=O)(O)O [PAMIDRONIC ACID]	62	941	933	61.7
CCC1CCCCN1C(P(=O)(O)O)P(=O)(O)O (stereo not drawn)		1200	1200	
O=P(O)(O)C(Nc1ccccn1)P(=O)(O)O	7.4	16	15.5	7.41
Cc1cccnc1NC(P(=O)(O)O)P(=O)(O)O	4.3	4.9	4.9	4.37
Cc1ccnc(NC(P(=O)(O)O)P(=O)(O)O)c1	13	14	14.5	12.6
O=P(O)(O)C(O)(Cn1ccnn1)P(=O)(O)O		2070	2090	
O=P(O)(O)C(Sc1ccccn1)P(=O)(O)O		67	67.6	
NCCCCCC(O)(P(=O)(O)O)P(=O)(O)O [NERIDRONIC ACID]	1.96	503	501	195
O=P(O)(O)C(O)(Cc1ccccn1)P(=O)(O)O	5.7	5.6	5.62	5.75
CC1CCN(C(P(=O)(O)O)P(=O)(O)O)CC1		24	23.4	
O=P(O)(O)C(O)(Cc1cccnc1)P(=O)(O)O [RISEDRONIC ACID]	6.9	6.2	6.17	6.92
O=P(O)(O)C(N1CCCCC1)P(=O)(O)O	66	122	120	66.1
